# From ChEMBL document CHEMBL1671654, “In vivo activity of the pyrrolopyrazolyl-substituted oxazolidinone RWJ-416457” (Antimicrob Agents Chemother, 2009)
# Calls of active or inactive are those of the source. The calls are words filed in the database; no cut-off is given here.
# Legend:
# Staphylococcus aureus [1] = assay: Antibacterial activity against Methicillin-susceptible Staphylococcus aureus ATCC 13709 after 16 to 20 hrs by broth microdilution method; assay type: functional
# Staphylococcus aureus [2] = assay: Antibacterial activity against community-associated methicillin-resistant Staphylococcus aureus OC8525 after 16 to 20 hrs by broth microdilution method; assay type: functional
# Streptococcus pneumoniae [3] = assay: Antibacterial activity against penicillin-susceptible Streptococcus pneumoniae ATCC 6301 after 16 to 20 hrs by broth microdilution method; assay type: functional
# Staphylococcus aureus [4] = assay: Antibacterial activity against Methicillin-susceptible Staphylococcus aureus ATCC 13709 after 16 to 20 hrs by broth microdilution method relative to Linezolid; assay type: functional
# Streptococcus pneumoniae [5] = assay: Antibacterial activity against penicillin-susceptible Streptococcus pneumoniae ATCC 6301 after 16 to 20 hrs by broth microdilution method relative to Linezolid; assay type: functional
# Staphylococcus aureus [6] = assay: Antibacterial activity against methicillin-susceptible Staphylococcus aureus ATCC 13709 infected in po dosed Swiss Webster mouse administered at 1 to 3 hrs post infection measured after 3 days; assay type: functional; settings: ATCC 13709, po
# Staphylococcus aureus [7] = assay: Antibacterial activity against community-associated methicillin-resistant Staphylococcus aureus OC8525 infected in po dosed Swiss Webster mouse administered at 1 to 3 hrs post infection measured after 3 days; assay type: functional
# Streptococcus pneumoniae [8] = assay: Antibacterial activity against penicillin-susceptible Streptococcus pneumoniae ATCC 6301 infected in po dosed Swiss Webster mouse administered at 1 to 3 hrs post infection measured after 3 days; assay type: functional; settings: ATCC 6301, po
# Staphylococcus aureus [9] = assay: Antibacterial activity against methicillin-susceptible Staphylococcus aureus ATCC 13709 infected in sc dosed Swiss Webster mouse administered at 1 to 3 hrs post infection measured after 3 days; assay type: functional; settings: ATCC 13709, sc
# Staphylococcus aureus [10] = assay: Antibacterial activity against community-associated methicillin-resistant Staphylococcus aureus OC8525 infected in sc dosed Swiss Webster mouse administered at 1 to 3 hrs post infection measured after 3 days; assay type: functional
# Streptococcus pneumoniae [11] = assay: Antibacterial activity against penicillin-susceptible Streptococcus pneumoniae ATCC 6301 infected in sc dosed Swiss Webster mouse administered at 1 to 3 hrs post infection measured after 3 days; assay type: functional; settings: ATCC 6301, sc
# Staphylococcus aureus [12] = assay: Antibacterial activity against methicillin-susceptible Staphylococcus aureus ATCC 13709 infected in iv dosed Swiss Webster mouse administered at 1 to 3 hrs post infection measured after 3 days; assay type: functional; settings: ATCC 13709, iv
# Staphylococcus aureus [13] = assay: Antibacterial activity against community-associated methicillin-resistant Staphylococcus aureus OC8525 infected in iv dosed Swiss Webster mouse administered at 1 to 3 hrs post infection measured after 3 days; assay type: functional
# Streptococcus pneumoniae [14] = assay: Antibacterial activity against penicillin-susceptible Streptococcus pneumoniae ATCC 6301 infected in iv dosed Swiss Webster mouse administered at 1 to 3 hrs post infection measured after 3 days; assay type: functional; settings: ATCC 6301, iv
# Staphylococcus aureus [15] = assay: Antibacterial activity against methicillin-susceptible Staphylococcus aureus Smith ATCC 13709 infected in SKH1 mouse assessed as log reduction in CFU/g skin at => 80 mg/kg/day, po administered post infection measured after 48 hrs; assay type: functional
# Staphylococcus aureus [16] = assay: Antibacterial activity against methicillin-susceptible Staphylococcus aureus Smith ATCC 13709 infected in SKH1 mouse assessed as log reduction in CFU/g skin at 5 mg/kg/day, po administered post infection measured after 48 hrs; assay type: functional, organism-based
# Staphylococcus aureus [17] = assay: Bacteriostatic activity against methicillin-susceptible Staphylococcus aureus Smith ATCC 13709 infected in SKH1 mouse at 20 mg/kg/day, po administered post infection measured after 48 hrs; assay type: functional, organism-based
# Staphylococcus aureus [18] = assay: Antibacterial activity against community-associated methicillin-resistant Staphylococcus aureus OC8525 infected in SKH1 mouse assessed as log reduction in CFU/g skin at 5 mg/kg/day, po administered post infection measured after 48 hrs; assay type: functional, organism-based
# Staphylococcus aureus [19] = assay: Antibacterial activity against community-associated methicillin-resistant Staphylococcus aureus OC8525 infected in SKH1 mouse assessed as log reduction in CFU/g skin up to 320 mg/kg/day, po administered post infection measured after 48 hrs; assay type: functional
# Streptococcus pneumoniae [20] = assay: Antibacterial activity against penicillin-susceptible Streptococcus pneumoniae ATCC 6301 infected in po dosed CF-1 mouse administered at 24 hrs post infection measured after 48 hrs relative to Linezolid; assay type: functional
# [21] = AUC (0 to 24 hrs) in CF-1 mouse at 2 mg/kg, iv; assay type: ADME, organism-based; set-up: time < 24 hr, dose 2 mg/kg, route intravenous; settings: plasma
# [22] = AUC (0 to 24 hrs) in CF-1 mouse at 10 mg/kg, sc; assay type: ADME, organism-based; set-up: time < 24 hr, dose 10 mg/kg, route subcutaneous; settings: plasma
# [23] = AUC (0 to 24 hrs) in CF-1 mouse at 10 mg/kg, po; assay type: ADME, organism-based; set-up: time < 24 hr, dose 10 mg/kg, route oral; settings: plasma
# Mus musculus [24] = assay: fAUC (0 to 24 hrs) in CF-1 mouse at 2 mg/kg, iv; assay type: ADME, organism-based; set-up: dose 2 mg/kg, route intravenous; settings: in vivo
# Mus musculus [25] = assay: fAUC (0 to 24 hrs) in CF-1 mouse at 10 mg/kg, sc; assay type: ADME, organism-based; set-up: dose 10 mg/kg, route subcutaneous; settings: in vivo
# Mus musculus [26] = assay: fAUC (0 to 24 hrs) in CF-1 mouse at 10 mg/kg, po; assay type: ADME, organism-based; set-up: dose 10 mg/kg, route oral; settings: in vivo
# [27] = Cmax in CF-1 mouse at 2 mg/kg, iv; assay type: ADME, organism-based; set-up: dose 2 mg/kg, route intravenous; settings: in vivo
# [28] = Cmax in CF-1 mouse at 10 mg/kg, sc; assay type: ADME, organism-based; set-up: dose 10 mg/kg, route subcutaneous; settings: in vivo
# [29] = Cmax in CF-1 mouse at 10 mg/kg, po; assay type: ADME, organism-based; set-up: dose 10 mg/kg, route oral; settings: in vivo
# Mus musculus [30] = assay: fCmax in CF-1 mouse at 2 mg/kg, iv; assay type: ADME, organism-based; set-up: dose 2 mg/kg, route intravenous; settings: in vivo
# Mus musculus [31] = assay: fCmax in CF-1 mouse at 10 mg/kg, sc; assay type: ADME, organism-based; set-up: dose 10 mg/kg, route subcutaneous; settings: in vivo
# Mus musculus [32] = assay: fCmax in CF-1 mouse at 10 mg/kg, po; assay type: ADME, organism-based; set-up: dose 10 mg/kg, route oral; settings: in vivo
# [33] = Tmax in CF-1 mouse serum at 10 mg/kg, sc; assay type: ADME, organism-based; set-up: dose 10 mg/kg, route subcutaneous
# [34] = Tmax in CF-1 mouse serum at 10 mg/kg, po; assay type: ADME, organism-based; set-up: dose 10 mg/kg, route oral
# [35] = Half life in CF-1 mouse at 2 mg/kg, iv; assay type: ADME, organism-based; set-up: dose 2 mg/kg, route intravenous; settings: in vivo
# [36] = Half life in CF-1 mouse at 10 mg/kg, sc; assay type: ADME, organism-based; set-up: dose 10 mg/kg, route subcutaneous; settings: in vivo
# [37] = Half life in CF-1 mouse at 10 mg/kg, po; assay type: ADME, organism-based; set-up: dose 10 mg/kg, route oral; settings: in vivo
# [38] = Clearance in CF-1 mouse at 2 mg/kg, iv; assay type: ADME, organism-based; set-up: dose 2 mg/kg, route intravenous; settings: in vivo
# [39] = Apparent oral clearance in CF-1 mouse at 10 mg/kg, sc; assay type: ADME, organism-based; set-up: dose 10 mg/kg, route oral; settings: in vivo
# [40] = Apparent oral clearance in CF-1 mouse at 10 mg/kg, po; assay type: ADME, organism-based; set-up: dose 10 mg/kg, route oral; settings: in vivo
# [41] = Ratio of fAUC (24 hrs) for Methicillin-susceptible Staphylococcus aureus ATCC 13709 infected po dosed mouse to MIC for Methicillin-susceptible Staphylococcus aureus ATCC 1370; assay type: functional
# [42] = Ratio of fAUC (24 hrs) for Methicillin-susceptible Staphylococcus aureus ATCC 13709 infected sc dosed mouse to MIC for Methicillin-susceptible Staphylococcus aureus ATCC 1370; assay type: functional
# [43] = Ratio of fAUC (24 hrs) for Methicillin-susceptible Staphylococcus aureus ATCC 13709 infected iv dosed mouse to MIC for Methicillin-susceptible Staphylococcus aureus ATCC 1370; assay type: functional
# [44] = Ratio of fAUC (24 hrs) for community-associated methicillin-resistant Staphylococcus aureus OC8525 infected po dosed mouse to MIC for community-associated methicillin-resistant Staphylococcus aureus OC8525; assay type: functional
# [45] = Ratio of fAUC (24 hrs) for community-associated methicillin-resistant Staphylococcus aureus OC8525 infected sc dosed mouse to MIC for community-associated methicillin-resistant Staphylococcus aureus OC8525; assay type: functional
# [46] = Ratio of fAUC (24 hrs) for community-associated methicillin-resistant Staphylococcus aureus OC8525 infected iv dosed mouse to MIC for community-associated methicillin-resistant Staphylococcus aureus OC8525; assay type: functional
# [47] = Ratio of fAUC (24 hrs) for penicillin-susceptible Streptococcus pneumoniae ATCC 6301 infected po dosed mouse to MIC for penicillin-susceptible Streptococcus pneumoniae ATCC 6301; assay type: functional
# [48] = Ratio of fAUC (24 hrs) for penicillin-susceptible Streptococcus pneumoniae ATCC 6301 infected sc dosed mouse to MIC for penicillin-susceptible Streptococcus pneumoniae ATCC 6301; assay type: functional
# [49] = Ratio of fAUC (24 hrs) for penicillin-susceptible Streptococcus pneumoniae ATCC 6301 infected iv dosed mouse to MIC for penicillin-susceptible Streptococcus pneumoniae ATCC 6301; assay type: functional
# Staphylococcus aureus [50] = assay: Antibacterial activity against Methicillin-susceptible Staphylococcus aureus assessed as skin lesion size; assay type: functional
# Staphylococcus aureus [51] = assay: Antibacterial activity against Methicillin-resistant Staphylococcus aureus assessed as skin lesion size; assay type: functional
smiles,measurement,setting,value
CC(=O)NC[C@H]1CN(c2ccc(N3Cc4cn(C)nc4C3)c(F)c2)C(=O)O1,MIC,Staphylococcus aureus [1],1 µg/mL
same,MIC,Staphylococcus aureus [2],2 µg/mL
same,MIC,Streptococcus pneumoniae [3],1 µg/mL
same,fold change (FC),Staphylococcus aureus [4],2
same,fold change (FC),Streptococcus pneumoniae [5],2
same,ED50,Staphylococcus aureus [6],3.4 mg/kg/day
same,ED50,Staphylococcus aureus [7],2.1 mg/kg/day
same,ED50,Streptococcus pneumoniae [8],3.1 mg/kg/day
same,ED50,Staphylococcus aureus [9],4.7 mg/kg/day
same,ED50,Staphylococcus aureus [10],3.5 mg/kg/day
same,ED50,Streptococcus pneumoniae [11],9.3 mg/kg/day
same,ED50,Staphylococcus aureus [12],4 mg/kg/day
same,ED50,Staphylococcus aureus [13],1.5 mg/kg/day
same,ED50,Streptococcus pneumoniae [14],18 mg/kg/day
same,FC,Staphylococcus aureus [15],0.9
same,Activity,Staphylococcus aureus [16],inactive
same,Activity,Staphylococcus aureus [17],Active
same,Activity,Staphylococcus aureus [18],inactive
same,FC,Staphylococcus aureus [19],1
same,fold change (FC),Streptococcus pneumoniae [20],2
same,ED50,"Streptococcus pneumoniae [20]; Streptococcus pneumoniae, ATCC 6301, po",3.1 mg/kg/day
same,AUC(0-t) at 24 h,[21],3200 ng·h/mL
same,AUC(0-t) at 24 h,[22],15000 ng·h/mL
same,AUC(0-t) at 24 h,[23],23000 ng·h/mL
same,fAUC,Mus musculus [24],1700 ng·h/mL
same,fAUC,Mus musculus [25],8300 ng·h/mL
same,fAUC,Mus musculus [26],13000 ng·h/mL
same,Cmax,[27],4400 ng/mL
same,Cmax,[28],7500 ng/mL
same,Cmax,[29],3500 ng/mL
same,fCmax,Mus musculus [30],2.4 µg/mL
same,fCmax,Mus musculus [31],4.1 µg/mL
same,fCmax,Mus musculus [32],1.9 µg/mL
same,Tmax,[33],0.5 h
same,Tmax,[34],2 h
same,half-life,[35],1.5 h
same,half-life,[36],2 h
same,half-life,[37],3.4 h
same,clearance,[38],10.5 mL/min/kg
same,CL/F,[39],10.8 mL/min/kg
same,CL/F,[40],7.17 mL/min/kg
same,fAUC/MIC,[41],13
same,fAUC/MIC,[42],8.3
same,fAUC/MIC,[43],8.6
same,fAUC/MIC,[44],6.3
same,fAUC/MIC,[45],4.1
same,fAUC/MIC,[46],4.3
same,fAUC/MIC,[47],13
same,fAUC/MIC,[48],8.3
same,fAUC/MIC,[49],8.6
same,Activity,Staphylococcus aureus [50],14%
same,Activity,Staphylococcus aureus [51],23%
